Where “and” joins values, the source holds several entries; their conditions need not be identical. Identical values can stand only once. Like-named read-outs stand apart in the source and are kept apart here.
Assays:
[1] = tested on: retinal ganglion cells; conditions: animals, recent study (glaucoma background); cited from earlier work
[2] = tested on: retinal ganglion cells (RGCs)
Procedure: (§1) Study outline: The neuroprotective effects of nicotinamide riboside were examined in EAE mice with optic neuritis. […] To induce EAE, mice were immunized several days later with 300 μg PLP emulsified in complete Freund's adjuvant (CFA), and control mice (without EAE) were mock-immunized with phosphate buffered saline (PBS) in CFA. All mice received 200 ng intraperitoneal pertussis toxin (PT) on the day of immunization (day 0) and again on day 2.
(§2) Eyes were treated with nicotinamide riboside by intravitreal (ivt) injections with a volume of 0.8 μl/injection of a stock solution of either 0.1 M or 0.4 M nicotinamide riboside in PBS (Groups 2, 4 and 5). […] Treament with nicotinamide riboside, as well as PBS control injections, were given ivt on days 0, 4, 7 and 11. Mice were scored daily for clinical EAE, and were sacrificed on day 14 by overdose with ketamine and xylazine.
(§3) Retinas were dissected and whole-mounted for fluorescent microscopy. RGC numbers were quantified by counting FG-labeled cells in 12 standardized fields in each retina. Optic nerves were dissected and processed for histology. Cut sections stained by H & E were evaluated for the presence of inflammatory cells to determine acute optic neuritis. RGCs were compared between PBS-treated and nicotinamide riboside-treated eyes with optic neuritis to determine whether nicotinamide riboside prevents loss of neurons.

[3] = tested on: EAE mice with optic neuritis; test: Incidence of optic neuritis (inflammatory cell infiltration of optic nerve) and clinical EAE, nicotinamide riboside; type: in vivo, SJL/J mice
Procedure: as §1, §2, §3

[4] = tested on: retinal ganglion cells (RGCs); test: Retinal ganglion cell (RGC) counts in EAE optic neuritis model, resveratrol intravitreal; type: in vivo, SJL/J mice; conditions: for RGC numbers: EAE eyes with optic neuritis, 0.8 μl intravitreal days 0, 3, 7, 11, day 14
Procedure: (§4) The experimental design is diagrammed in FIG. 21.
Three test doses were diluted:
(§5) Retinas were diessected and whole-mounted for fluorescent microscopy. […] Optic nerves were dissected and processed for histology. […] RGCs were compared between PBS-treated and resveratrol-treated eyes with optic neuritis to determine whether resveratrol prevents loss of neurons.

[5] = tested on: EAE mice with optic neuritis; test: Clinical EAE score and incidence of optic neuritis, resveratrol intravitreal; type: in vivo, SJL/J mice; conditions: for Peak EAE Score For Individual Mice: five point scale
Source text: as §4
Mice were scored daily for clinical EAE on a five point scale: no disease=0; partial tail paralysis=0.5; tail paralysis or waddling gait=1.0; partial tail paralysis and waddling gait=1.5; tail paralysis and waddling gait=2.0; partial limb paralysis=2.5; paralysis of one limb=3.0; paralysis of one limb and partial paralysis of another=3.5; paralysis of two limbs=4.0; moribund state=4.5; death=5.0.
as §5

[6] = Measured resveratrol concentration in Captisol solutions and reconstitution of lyophilized product; type: physicochemical
Procedure: Lyophilized vials containing 10% Captisol control vehicle were also manufactured. […] Lyophilized vials containing 40% Captisol control vehicle were also manufactured.
The filtered solutions were dispensed into vials (1.0 mL solution into 3 mL vial, Wheaton #223684), and lyophilized. At the end of the lyophilization cycle, the vials were sealed under vacuum and a cap crimped over the septa.
The lyophilized resveratrol product was an off-white cake. The material reconstituted in ˜20 seconds after the addition of 1.0 mL water. […] The lyophilized control vehicle product was a white cake. The material reconstituted in ˜20 seconds after the addition of 1.0 mL water. The reconstituted control vehicle was clear, with no visible particulates, and having a pH of 5.82.
The solution was stirred for 35 minutes, followed by sonication for 1 hour. The solution was stirred for an additional 50 minutes, followed by sonication for an additional hour. At this point, solid material was still present in the sample. An aliquot was removed for analysis. […] Because the solution appeared cloudy at this time, three portions were separated to try alternate mixing methods. Approximately 200 mL was transferred to a 500 mL volumetric flask and was sonicated for 45 min, approximately 300 mL was vigorously mixed with an overhead mixer for 90 minutes, and approximately 100 mL was homogenized for 25 minutes. None of the three portions appeared clear. […] The portions were combined and were stirred at ambient temperature overnight protected from light. The following morning, using an aseptic technique in the laminar flow hood, the solution was sterile filtered via a Nalgene 90 mm filter unit (Cat# 167-0020; […]).

[7] = optic nerve, acute optic neuritis in EAE

N=C(N)NN [aminoguanidine]
loss of retinal ganglion cells [1]: reduction in the loss of retinal ganglion cells

NC(=O)c1ccc[n+]([C@@H]2O[C@H](CO)[C@@H](O)[C@H]2O)c1 [nicotinamide riboside]
Toxicity to RGCs ([2]; mouse, in vivo): not toxic
RGC numbers vs control eyes ([2]; non-EAE eyes treated with nicotinamide riboside (Group 2) vs control eyes (Group 1)): no difference
Incidence of optic neuritis and clinical EAE vs controls ([3]; nicotinamide riboside treated mice vs controls): did not differ
Inflammatory cell infiltration [3, 7]: does not prevent

Oc1ccc(/C=C/c2cc(O)cc(O)c2)cc1 [resveratrol, 3,5,4′-Trihydroxy-trans-stilbene]
RGC numbers ([4]; 38 μM resveratrol): 452±136 RGCs
RGC numbers ([4]; 77 μM resveratrol): 585±198 RGCs
RGC numbers ([4]; 600 μM resveratrol): 644±148 RGCs
Toxicity to RGCs ([4]; mouse, in vivo): not toxic
RGC numbers vs control eyes ([4]; non-EAE eyes treated with resveratrol vs control eyes): no difference
Peak EAE Score For Individual Mice ([5]; Control (non-EAE) mice, 38 μM resveratrol intravitreal): 0
Peak EAE Score For Individual Mice ([5]; Control (non-EAE) mice, 600 μM resveratrol intravitreal): 0
Peak EAE Score For Individual Mice ([5]; EAE mice, 38 μM resveratrol intravitreal): 1.5 and 3 (2×) and 0 and 5 and 2.5 and 1 (2×)
Peak EAE Score For Individual Mice ([5]; EAE mice, 77 μM resveratrol intravitreal): 2 (4×) and 2.5 (3×) and 0 and 3.5 and 5 and 1.5
Peak EAE Score For Individual Mice ([5]; EAE mice, 600 μM resveratrol intravitreal): 2.5 and 2 (2×) and 5 and 4.5 and 1.5 and 0.5
Inflammatory cell infiltration [5, 7]: does not prevent
Incidence of optic neuritis and clinical EAE vs controls ([5]; resveratrol treated mice vs controls): did not differ
concentration of resveratrol in solution ([6]; 10% Captisol lyophilisate reconstituted with 1.0 mL water, pH 5.91): 14400 µM
concentration of resveratrol in solution ([6]; 10% Captisol, after 0.20 μm filtration, pH 4.83): 14900 µM
concentration of resveratrol in solution ([6]; 10% Captisol, mixed 1 hour at ambient temperature, initial solution, pH 5.02 (target 20 mM)): 15400 µM
concentration of resveratrol in solution (HPLC) ([6]; 40% Captisol, after stirring and sonication, solid still present, pH 4.76 (target 175 mM)): 55000 µM
concentration of resveratrol in solution ([6]; 40% Captisol, portion homogenized for 25 minutes): 74000 µM
concentration of resveratrol in solution ([6]; 40% Captisol, stirred overnight at ambient temperature, sterile filtered): 168000 µM
